For 40 molecules, Cmax and IC50 results are on record in ChEMBL document CHEMBL4011582, “Human drug-induced liver injury severity is highly associated with dual inhibition of liver mitochondrial function and bile salt export pump” (Hepatology, 2014).

One series in a line: clinical. Conditions: human.
For a further series, the system named is Liver. The format is ADME, mitochondria, Rattus norvegicus, Sprague-Dawley.

Broadly, the Cmax is the peak of the concentration-time curve. `CCCc1nc2c(C)cc(-c3nc4ccccc4n3C)cc2n1Cc1ccc(-c2ccccc2C(=O)O)cc1` had a Cmax in “clinical” of 851 nM.

`CC(C)(C)NC(=O)[C@@H]1C[C@@H]2CCCC[C@@H]2CN1C[C@@H](O)[C@H](Cc1ccccc1)NC(=O)[C@H](CC(N)=O)NC(=O)c1ccc2ccccc2n1` yielded a Cmax in the series “clinical” of 3360 nM. Further, in the series on Liver, the IC50 result is reported as “Non-Toxic”.

Consider `CC(C)CN(C[C@@H](O)[C@H](Cc1ccccc1)NC(=O)O[C@H]1CCOC1)S(=O)(=O)c1ccc(N)cc1`, for which the Cmax in “clinical” was found to be 15200 nM. Besides, the IC50 result in the series with Liver was “Non-Toxic”.

For `CC(C)(C)NC(=O)[C@@H]1CN(Cc2cccnc2)CCN1C[C@@H](O)C[C@@H](Cc1ccccc1)C(=O)N[C@H]1c2ccccc2C[C@H]1O.O`, the highest concentration (Cmax) in “clinical” worked out at 11700 nM. The IC50 result in the series with Liver is reported as “Non-Toxic”.

In “clinical”, `Cc1c(O)cccc1C(=O)N[C@@H](CSc1ccccc1)[C@H](O)CN1C[C@H]2CCCC[C@H]2C[C@H]1C(=O)NC(C)(C)C` registered a Cmax of 7040 nM.

Consider `CC(C)(C)NCC(O)c1ccc(O)c(CO)c1` (stereo not given) [ALBUTEROL], for which, in “clinical”, the Cmax was determined as 58 nM. The IC50 result in the series with Liver is recorded as “Non-Toxic”.

As to `CCCN(CCC)C(=O)Cc1c(-c2ccc(Cl)cc2)nc2ccc(Cl)cn12` [ALPIDEM], the maximum concentration (Cmax) in “clinical” stood at 285 nM. This counts as sub-micromolar.

`CN(C)CCC(c1ccc(Br)cc1)c1ccccn1` (stereo not given) [BROMPHENIRAMINE] displayed a maximum concentration (Cmax) in the series “clinical” of 36 nM. Moreover, the IC50 entry in the series with Liver is “Non-Toxic”.

`CCC(=O)O[C@]1(C(=O)CCl)[C@@H](C)C[C@H]2[C@@H]3CCC4=CC(=O)C=C[C@]4(C)[C@@]3(F)[C@@H](O)C[C@@]21C` [CLOBETASOL PROPIONATE] yielded a Cmax in the series “clinical” of 43 nM. In addition, the IC50 result in the series on Liver is “Non-Toxic”.

In the case of `CC(C)/N=c1\cc2n(-c3ccc(Cl)cc3)c3ccccc3nc-2cc1Nc1ccc(Cl)cc1` [CLOFAZIMINE], the peak level in “clinical” (Cmax) was 1480 nM. Besides, in the series on Liver, the IC50 result is on record as “Non-Toxic”.

In “clinical”, `Clc1ccccc1C(c1ccccc1)(c1ccccc1)n1ccnc1` [CLOTRIMAZOLE] returned a Cmax of 87 nM.

With `C#C[C@]1(O)CC[C@H]2[C@@H]3CCC4=Cc5oncc5C[C@]4(C)[C@H]3CC[C@@]21C` [DANAZOL], the highest level in “clinical” (Cmax) was 750 nM.

On to `CCC(=O)O[C@H]1[C@H](O[C@@H]2[C@@H](C)[C@H](O[C@H]3C[C@@](C)(OC)[C@@H](O)[C@H](C)O3)[C@@H](C)C(=O)O[C@H](CC)[C@@](C)(O)[C@H](O)[C@@H](C)C(=O)[C@H](C)C[C@@]2(C)O)O[C@H](C)C[C@@H]1N(C)C.CCCCCCCCCCCCOS(=O)(=O)O` [ERYTHROMYCIN ESTOLATE], for which the Cmax in “clinical” is 4200 nM.

In the series “clinical”, `CC(C)(C)NC(=O)[C@H]1CC[C@H]2[C@@H]3CC[C@H]4NC(=O)C=C[C@]4(C)[C@H]3CC[C@]12C` [FINASTERIDE] displayed a Cmax of 99 nM. Also, the IC50 result with Liver is recorded as “Non-Toxic”.

In the case of `CC(C)n1c(/C=C/C(O)CC(O)CC(=O)O)c(-c2ccc(F)cc2)c2ccccc21` (stereo not given) [FLUVASTATIN], in the series “clinical”, the maximum concentration (Cmax) amounted to 663 nM. In the series with Liver, the IC50 entry is given as “Non-Toxic”.

`Nc1nc(=O)c2nc(CNc3ccc(C(=O)N[C@@H](CCC(=O)O)C(=O)O)cc3)cnc2[nH]1` [FOLIC ACID]: the Cmax in “clinical” came to 135 nM. Also, the IC50 entry with Liver is “Non-Toxic”.

`NS(=O)(=O)c1cc(C(=O)O)c(NCc2ccco2)cc1Cl` [FUROSEMIDE] gave a maximum concentration (Cmax) in the series “clinical” of 18100 nM.

Regarding `COc1cc2ncnc(Nc3ccc(F)c(Cl)c3)c2cc1OCCCN1CCOCC1` [GEFITINIB], the highest level in the series “clinical” (Cmax) was 356 nM.

In “clinical”, `COc1ccc(Cl)cc1C(=O)NCCc1ccc(S(=O)(=O)NC(=O)NC2CCCCC2)cc1` [GLYBURIDE] yielded a maximum concentration (Cmax) of 210 nM. This Cmax lies about 1.7-fold lower than the previous one.

With `Cc1ccc(NC(=O)c2ccc(CN3CCN(C)CC3)cc2)cc1Nc1nccc(-c2cccnc2)n1` [IMATINIB], the peak level in the series “clinical” (Cmax) was 7090 nM. For the same molecule, the IC50 entry in the series on Liver is given as “Non-Toxic”.

Turning to `CCCCC1=NC2(CCCC2)C(=O)N1Cc1ccc(-c2ccccc2-c2nnn[nH]2)cc1` [IRBESARTAN], the concentration in “clinical” peaked (Cmax) at 3500 nM. For the same molecule, in the series with Liver, the IC50 result is “Non-Toxic”.

`CC1=C(/C=C/C(C)=C/C=C/C(C)=C\C(=O)O)C(C)(C)CCC1` [ISOTRETINOIN] gave a maximum concentration (Cmax) in the series “clinical” of 2870 nM. That is a single-digit micromolar value.

In the series “clinical”, `CC(=O)N1CCN(c2ccc(OCC3COC(Cn4ccnc4)(c4ccc(Cl)cc4Cl)O3)cc2)CC1` (stereo not given) [KETOCONAZOLE] showed a Cmax of 12500 nM.

Molecule `CS(=O)(=O)CCNCc1ccc(-c2ccc3ncnc(Nc4ccc(OCc5cccc(F)c5)c(Cl)c4)c3c2)o1` [LAPATINIB] came in with a Cmax in the series “clinical” of 4180 nM. Further, in the series with Liver, the IC50 entry is on record as “Non-Toxic”.

On to `N[C@@H](Cc1cc(I)c(Oc2ccc(O)c(I)c2)c(I)c1)C(=O)O` [LIOTHYRONINE], for which the Cmax in the series “clinical” was found to be 108 nM.

As for `CCCCc1nc(Cl)c(CO)n1Cc1ccc(-c2ccccc2-c2nnn[nH]2)cc1` [LOSARTAN], the concentration in the series “clinical” peaked (Cmax) at 651 nM. Further, the IC50 result with Liver is “Non-Toxic”.

In “clinical”, `CC[C@H](C)C(=O)O[C@H]1C[C@@H](C)C=C2C=C[C@H](C)[C@H](CC[C@@H]3C[C@@H](O)CC(=O)O3)[C@H]21` [LOVASTATIN] registered a Cmax of 25 nM. For the same molecule, in the series with Liver, the IC50 result was “Non-Toxic”.

Turning to `Cc1ncc2n1-c1ccc(Cl)cc1C(c1ccccc1F)=NC2` [MIDAZOLAM], the peak concentration (Cmax) in the series “clinical” was 650 nM. Besides, the IC50 entry in the series on Liver is given as “Non-Toxic”.

As for `COC(=O)C1=C(C)NC(C)=C(C(=O)OCCN(C)Cc2ccccc2)C1c1cccc([N+](=O)[O-])c1` (stereo not given) [NICARDIPINE], the Cmax in “clinical” worked out at 81 nM.

For `COCCOC(=O)C1=C(C)NC(C)=C(C(=O)OC(C)C)C1c1cccc([N+](=O)[O-])c1` (stereo not given) [NIMODIPINE], the Cmax in “clinical” worked out at 195 nM. Compared with the last molecule, the Cmax is about 2.4-fold higher.

In “clinical”, `COC(=O)C1=C(C)NC(C)=C(C(=O)OCC(C)C)C1c1ccccc1[N+](=O)[O-]` (stereo not given) [NISOLDIPINE] returned a Cmax of 12.9 nM. Moreover, in the series on Liver, the IC50 result was “Non-Toxic”.

Take `CCN(CC)CC#CCOC(=O)C(O)(c1ccccc1)C1CCCCC1` (stereo not given) [OXYBUTYNIN]: in the series “clinical”, the maximum concentration (Cmax) was 22 nM. In addition, in the series with Liver, the IC50 entry is “Non-Toxic”.

`CC(=O)O[C@H]1C(=O)[C@@]2(C)[C@H]([C@H](OC(=O)c3ccccc3)[C@]3(O)C[C@H](OC(=O)[C@H](O)[C@@H](NC(=O)c4ccccc4)c4ccccc4)C(C)=C1C3(C)C)[C@]1(OC(C)=O)CO[C@@H]1C[C@@H]2O` [PACLITAXEL]: the IC50 entry with Liver is given as “Non-Toxic”.

On to `CC(COc1ccccc1)N(CCCl)Cc1ccccc1` (stereo not given) [PHENOXYBENZAMINE], for which the concentration in “clinical” peaked (Cmax) at 197 nM. Besides, in the series with Liver, the IC50 entry is “Non-Toxic”.

On to `Cc1ccc(N(CC2=NCCN2)c2cccc(O)c2)cc1` [PHENTOLAMINE], for which the highest level in “clinical” (Cmax) was 86 nM. For the same molecule, the IC50 result in the series with Liver is “Non-Toxic”.

`CCc1ccc(CCOc2ccc(CC3SC(=O)NC3=O)cc2)nc1` (stereo not given) [PIOGLITAZONE] showed a Cmax in “clinical” of 2950 nM. This lies in the single-digit micromolar range.

Consider `CC(=O)[C@H]1CC[C@H]2[C@@H]3CCC4=CC(=O)CC[C@]4(C)[C@H]3CC[C@]12C` [PROGESTERONE], for which the highest concentration (Cmax) in the series “clinical” is 193 nM.

`CNC(=O)c1cc(Oc2ccc(NC(=O)Nc3ccc(Cl)c(C(F)(F)F)c3)cc2)ccn1` [SORAFENIB] returned a Cmax in the series “clinical” of 132 nM. This Cmax and that of the molecule before are within 1.5-fold of each other.

`Cc1c(C)c2c(c(C)c1O)CCC(C)(COc1ccc(CC3SC(=O)NC3=O)cc1)O2` (stereo not given) [TROGLITAZONE] yielded a Cmax in “clinical” of 6390 nM.

In turn, `COc1cc(C(=O)NS(=O)(=O)c2ccccc2C)ccc1Cc1cn(C)c2ccc(NC(=O)OC3CCCC3)cc12` [ZAFIRLUKAST] displayed a peak concentration (Cmax) in “clinical” of 1210 nM.
